# Measured values published in patent US4808596A, “Imidazo[4,5-b]pyridine compounds and pharmaceutical compositions containing same” (Tokyo Tanabe Company, Ltd., priority 1986, dated 1989).
# Like-named read-outs stand apart in the source and are kept apart here.
# How the values were obtained:
# physchem = type: physicochemical; conditions: solid
# Protocol: The storage stability of the present compounds [I] was tested by allowing each test compound to stand under severe conditions (i.e., a temperature of 60° C. and a relative humidity of 75%) for 8 days and then determining its percentage of residue according to a thin-layer densitometric method (Bunseki Kagaku, Vol. 23, No. 9, p. 1016, 1974). More specifically, upon completion of the severe treatment, 100 μg of each test compound was applied to a thin-layer plate and this plate was developed with a chloroform-ethanol mixture (volume ratio 10:1). The thin-layer plate used for this purpose was a TLC Plate Aluminum Oxide 60F254 (manufactured by Merck Co.; 0.25 mm in thickness and 20 cm×20 cm in size), and it was developed over a distance of 15 cm. Then, using a Shimazu Two-wavelength Chromatoscanner CS-910 (manufactured by Shimazu Seisakusho), the resulting spot was analyzed at a wavelength of 300-315 nm.
# For purposes of comparison, the percentages of residue of Omeprazole (at a measuring wavelength of 300 nm) and Compounds α and β (at a measuring wavelength of 310 nm) were determined in the same manner as described above and are also shown in Table 1.
# gastric acid secretion = experiment: Inhibitory effect on gastric acid secretion (pylorus ligation); type: in vivo, male Wistar rats; conditions: Rattus norvegicus, po, rats; total acidity of gastric juice 4 hours after pylorus ligation
# Protocol: The inhibitory effect of the present compounds [I] on gastric acid secretion was tested by using male Wistar rats, weighing about 200 g, in groups of five. To these rats which had been fasted overnight, the test compounds were orally administered in a series of appropriately selected doses ranging from 1 to 100 mg/kg. Then, the pyloric end of the stomach was ligated. After the lapse of 4 hours, the total acidity of gastric juice of each rat was measured. More specifically, the test compounds were suspended in a 0.5% aqueous solution of carboxymethyl cellulose and administered to the rats 30 minutes before ligation. Gastric juice was collected by sacrificing and laparotomizing each rat. The total acidity of gastric juice was determined by titrating the gastric juice with a 0.1 N aqueous solution of sodium hydroxide until a pH of 7.0 was reached. As a control experiment, the total acidity of gastric juice of an untreated group was determined in the same manner as described above. The inhibitory effect of the test compounds on gastric acid secretion was evaluated on the basis of the dose (in mg/kg) required to inhibit gastric acid secretion, i.e. the total acidity of gastric juice, by 50% (hereinafter referred to as ED50). The ED50 value of each test compound was determined by calculating the difference in total acidity between the untreated group and each treated group, dividing the difference by the total acidity of the untreated group to obtain the degree of inhibition, and constructing a dose-response curve on the basis of the data thus obtained. For purposes of comparison, the ED50 values of Omeprazole and Compounds α and β were determined in the same manner as described above and are also shown in Table 3.
# (H^+ +K^+) ATPase = biological target: T1, (H^+ +K^+) ATPase (Sus scrofa, UniProt P19156); experiment: Inhibitory effect on (H^+ +K^+) ATPase; type: biochemical, hog; conditions: at 1 × 10^-3 M; in vitro; read-out: Degree of inhibition, Inhibitory effect on (H^+ + K^+) ATPase
# T1 construct: prepared from fresh pieces of the fundus ventriculi of hog stomach; from tissue; host or cells: hog stomach, fundus ventriculi (fresh pieces), prepared by the method of Saccomani et al., J. Biol. Chem. 1976
# Protocol: The inhibitory effect of the present compounds [I] on (H^+ +K^+) ATPase was tested by adding each test compound to a solution containing 300-500 μg, on a protein basis, of the enzyme, incubating this reaction mixture at 35°-37° C. for 5-30 minutes, and then determining the residual activity of (H^+ +K^+) ATPase present in the reaction mixture. The test compounds were dissolved in methanol or ethanol in advance and added to the reaction system in such an amount as to give a concentration of 1×10^-3 M. The (H^+ +K^+) ATPase used in this test was prepared from fresh pieces of the fundus ventriculi of hog stomach according to the method of Saccomani et al. (The Journal of Biological Chemistry, Vol. 251, No. 23, p. 7690, 1976). The residual activity of (H^+ +K^+) ATPase was determined by mixing magnesium chloride and potassium chloride with the incubated reaction mixture, adding adenosine triphosphate thereto, incubating this assay mixture 37° C. for 5-15 minutes to effect an enzymic reaction, and colorimetrically determining the liberated inorganic phosphate by use of an ammonium molybdate reagent. The initial concentrations of magnesium chloride, potassium chloride and adenosine triphosphate were adjusted to 2 mM, 20 mM and 2 mM, respectively. Colorimetric determinations were made at a wavelength of 360-400 nm. As a control experiment, the residual activity of (H^+ +K^+) ATPase was determined by repeating the above-described procedure without adding any test compound to the reaction system. In this table, the inhibitory effect is indicated by the degree of inhibition which was obtained by calculating the difference between the measured value obtained in the control experiment and the measured value resulting from the addition of each test compound and expressing this difference as a percentage of the measured value obtained in the control experiment. For purposes of comparison, the inhibitory effect of Omeprazole and Compounds α and β on (H^+ +K^+) ATPase was tested in the same manner as described above and the results thus obtained are also shown in Table 2.
# [1] = Acute toxicity test (LD50); conditions: rat, in vivo, rats
# Protocol: The acute toxicity (LD50) of several typical examples of the present compounds [I] (i.e., the compounds of Examples 1, 8, 13, 19, 24, 26 and 33) was tested with 5-weeks-old male Wistar rats. […] When Omeprazole was administered orally, its LD50 value was greater than 4000 mg/kg.
# T1 sequence (P19156 2-1034 limits assumed): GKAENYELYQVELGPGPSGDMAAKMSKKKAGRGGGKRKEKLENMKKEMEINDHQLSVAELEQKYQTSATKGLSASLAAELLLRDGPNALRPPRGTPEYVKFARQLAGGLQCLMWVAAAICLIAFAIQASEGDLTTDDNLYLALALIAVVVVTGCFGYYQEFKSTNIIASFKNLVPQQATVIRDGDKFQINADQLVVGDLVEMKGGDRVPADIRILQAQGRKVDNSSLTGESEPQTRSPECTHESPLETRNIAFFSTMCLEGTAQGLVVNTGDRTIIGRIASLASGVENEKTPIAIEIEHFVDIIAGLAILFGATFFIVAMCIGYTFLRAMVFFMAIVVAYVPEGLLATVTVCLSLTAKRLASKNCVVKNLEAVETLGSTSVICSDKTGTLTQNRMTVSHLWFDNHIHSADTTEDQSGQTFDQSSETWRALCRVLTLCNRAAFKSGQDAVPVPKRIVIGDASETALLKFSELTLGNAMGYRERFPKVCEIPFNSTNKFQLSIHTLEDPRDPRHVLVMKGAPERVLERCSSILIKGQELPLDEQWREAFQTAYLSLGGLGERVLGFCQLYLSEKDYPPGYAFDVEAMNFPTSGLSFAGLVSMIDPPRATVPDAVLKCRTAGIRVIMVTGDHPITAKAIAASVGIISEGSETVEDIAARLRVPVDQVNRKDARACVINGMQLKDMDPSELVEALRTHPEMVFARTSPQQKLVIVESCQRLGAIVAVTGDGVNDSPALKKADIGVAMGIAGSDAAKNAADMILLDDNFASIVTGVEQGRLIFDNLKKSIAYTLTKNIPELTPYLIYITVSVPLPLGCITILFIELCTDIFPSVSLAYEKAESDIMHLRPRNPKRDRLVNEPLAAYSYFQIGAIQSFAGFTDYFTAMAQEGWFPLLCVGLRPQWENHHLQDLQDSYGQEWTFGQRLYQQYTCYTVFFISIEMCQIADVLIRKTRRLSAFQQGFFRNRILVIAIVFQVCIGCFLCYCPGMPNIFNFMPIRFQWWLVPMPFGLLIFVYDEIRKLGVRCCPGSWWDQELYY
# T1 sequence (P18434 whole entry partner): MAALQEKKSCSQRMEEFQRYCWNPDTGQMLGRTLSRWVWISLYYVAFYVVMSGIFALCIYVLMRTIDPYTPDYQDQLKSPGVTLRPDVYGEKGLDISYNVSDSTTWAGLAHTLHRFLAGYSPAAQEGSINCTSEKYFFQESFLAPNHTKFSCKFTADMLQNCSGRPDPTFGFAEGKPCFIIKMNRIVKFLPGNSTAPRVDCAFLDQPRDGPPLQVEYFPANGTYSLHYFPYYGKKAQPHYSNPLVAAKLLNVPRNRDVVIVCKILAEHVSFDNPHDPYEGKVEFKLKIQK
remaining at 192 h (physchem; 75% rh) [%],inhibition at 1000 µM ((H^+ +K^+) ATPase) [%],SMILES,ED50 (gastric acid secretion) [mg/kg],"LD50 ([1]; ip, intraperitoneal administration) [mg/kg]",LD50 ([1]; oral administration) [mg/kg],"remaining at 192 h (physchem; after treatment at 60° C. and 75% RH for 8 days, read-out: Storage stability, Percentage of residue) [%]"
77,96.6,"COc1ccc2[nH]c([S+]([O-])Cc3ncc(C)c(OC)c3C)nc2n1 (centres unmarked) [Example 2, 2-[2-(3,5-Dimethyl-4-methoxy)pyridylmethylsulfinyl]-5-methoxyimidazo[4,5-b]pyridine]",18,–,–,–
99,100,"COc1ccc2[nH]c([S+]([O-])Cc3ncc(C)c(C)c3C)nc2n1 (centres unmarked) [Example 3, 2-[2-(3,4,5-Trimethyl)pyridylmethylsulfinyl]-5-methoxyimidazo[4,5-b]pyridine]",9,–,–,–
98,100,"COc1ccc2[nH]c([S+]([O-])Cc3cc(OC)c(C)cn3)nc2n1 (centres unmarked) [Example 4, 2-[2-(4-Methoxy-5-methyl)pyridylmethylsulfinyl]-5-methoxyimidazo[4,5-b]pyridine]",15,–,–,–
92,90,"Cc1cnc(C[S+]([O-])c2nc3nc(OC(C)C)ccc3[nH]2)c(C)c1 (centres unmarked) [Example 10, 2-[2-(3,5-Dimethyl)pyridylmethylsulfinyl]-5-isopropyloxyimidazo[4,5-b]pyridine]",19,–,–,–
76,98.5,"CCCCOc1ccc2[nH]c([S+]([O-])Cc3ncc(C)c(C)c3C)nc2n1 (centres unmarked) [Example 12, 2-[2-(3,4,5-Trimethyl)pyridylmethylsulfinyl]-5-n-butyloxyimidazo[4,5-b]pyridine]",21,–,–,–
93,100,"CCOc1ccc2[nH]c([S+]([O-])Cc3ncc(C)cc3C)nc2n1 (centres unmarked) [Example 14, 2-[2-(3,5-Dimethyl)pyridylmethylsulfinyl]-5-ethoxyimidazo[4,5-b]pyridine]",15,–,–,–
87,98.5,"COc1c(C)cnc(C[S+]([O-])c2nc3nc(OC(C)C)ccc3[nH]2)c1C (centres unmarked) [Example 15, 2-[2-(3,5-Dimethyl-4-methoxy)pyridylmethylsulfinyl]-5-isopropyloxyimidazo[4,5-b]pyridine]",13,–,–,–
72,100,"COc1c(C)cnc(C[S+]([O-])c2nc3nc(OCC(C)C)ccc3[nH]2)c1C (centres unmarked) [Example 20, 2-[2-(3,5-Dimethyl-4-methoxy)pyridylmethylsulfinyl]-5-isobutyloxyimidazo[4,5-b]pyridine]",10,–,–,–

# The remaining lines, values behind:
SMILES,remaining at 192 h (physchem; 75% rh) [%],inhibition at 1000 µM ((H^+ +K^+) ATPase) [%],ED50 (gastric acid secretion) [mg/kg],"LD50 ([1]; ip, intraperitoneal administration) [mg/kg]",LD50 ([1]; oral administration) [mg/kg],"remaining at 192 h (physchem; after treatment at 60° C. and 75% RH for 8 days, read-out: Storage stability, Percentage of residue) [%]"
"COc1cc(C[S+]([O-])c2nc3nccc(OC)c3[nH]2)ncc1C (centres unmarked) [Example 7, 2-[2-(4-Methoxy-5-methyl)pyridylmethylsulfinyl]-7-methoxyimidazo[4,5-b]pyridine]",53,98.8,22,–,–,–
"COc1cc(C[S+]([O-])c2nc3nc(OC(C)C)ccc3[nH]2)ncc1C (centres unmarked) [Example 16, 2-[2-(4-Methoxy-5-methyl)pyridylmethylsulfinyl]-5-isopropyloxyimidazo[4,5-b]pyridine]",90,96.1,16,–,–,–
"COc1ccnc(C[S+]([O-])c2nc3nc(OC(C)C)ccc3[nH]2)c1 (centres unmarked) [Example 17, 2-[2-(4-Methoxy)pyridylmethylsulfinyl]-5-isopropyloxyimidazo[4,5-b]pyridine]",75,93.7,17,–,–,–
"CCCOc1ccc2[nH]c([S+]([O-])Cc3ncc(C)cc3C)nc2n1 (centres unmarked) [Example 18, 2-[2-(3,5-Dimethyl)pyridylmethylsulfinyl]-5-n-propyloxyimidazo[4,5-b]pyridine]",85,92.3,19,–,–,–
"Cc1cnc(C[S+]([O-])c2nc3nc(OCC(C)C)ccc3[nH]2)c(C)c1 (centres unmarked) [Example 19, 2-[2-(3,5-Dimethyl)pyridylmethylsulfinyl]-5-isobutyloxyimidazo[4,5-b]pyridine]",78,100,11,> 500,> 4000,–
"COc1cc(C[S+]([O-])c2nc3nc(OCC(C)C)ccc3[nH]2)ncc1C (centres unmarked) [Example 21, 2-[2-(4-Methoxy-5-methyl)pyridylmethylsulfinyl]-5-isobutyloxyimidazo[4,5-b]pyridine]",69,97.4,13,–,–,–
"COc1ccnc(C[S+]([O-])c2nc3nc(OCC(C)C)ccc3[nH]2)c1 (centres unmarked) [Example 22, 2-[2-(4-Methoxy)pyridylmethylsulfinyl]-5-isobutyloxyimidazo[4,5-b]pyridine]",57,94.6,15,–,–,–
"Cc1cnc(C[S+]([O-])c2nc3nc(OCC4CC4)ccc3[nH]2)c(C)c1 (centres unmarked) [Example 23, 2-[2-(3,5-Dimethyl)pyridylmethylsulfinyl]-5-cyclopropylmethyloxyimidazo[4,5-b]pyridine]",95,100,12,–,–,–
"COc1ccnc(C[S+]([O-])c2nc3nc(OCC4CC4)ccc3[nH]2)c1 (centres unmarked) [Example 25, 2-[2-(4-Methoxy)pyridylmethylsulfinyl]-5-cyclopropylmethyloxyimidazo[4,5-b]pyridine]",51,92.9,18,–,–,–
"Cc1ccnc(C[S+]([O-])c2nc3nc(OCC(F)(F)C(F)(F)C(F)(F)F)ccc3[nH]2)c1 (centres unmarked) [Example 30, 2-[2-(4-Methyl)pyridylmethylsulfinyl]-5-(2,2,3,3,4,4,4-heptafluorobutyloxy)imidazo[4,5-b]pyridine]",–,92.1,19,–,–,73
"Cc1cnc(C[S+]([O-])c2nc3nc(OCCC(C)C)ccc3[nH]2)c(C)c1 (centres unmarked) [Example 34, 2-[2-(3,5-Dimethyl)pyridylmethylsulfinyl]-5-(3-methylbutyloxy)imidazo[4,5-b]pyridine]",76,98.5,14,–,–,–
"COc1c(C)cnc(C[S+]([O-])c2nc3ncc(OCCCC4CCCC4)cc3[nH]2)c1C (centres unmarked) [Example 36, 2-[2-(3,5-Dimethyl-4-methoxy)pyridylmethylsulfinyl]-6-(3-cyclopentylpropyloxy)imidazo[4,5-b]pyridine]",68,93,19,–,–,–
